{"source": "patent US20190054103A1", "about": "“METHOD OF TREATMENT OF TP53 WILD-TYPE TUMORS WITH 2',2'-DIFLUORO-5-AZA-2'-DEOXYCYTIDINE OR PRODRUGS THEREOF” (priority 2016, published 2019)", "experiment_in_all_cases": "NCI 60 Cell Line Panel growth inhibition", "assay_type_in_all_cases": "cell-based, human", "key": {"[1]": {"test_system": "786-0", "settings": "786-0, Renal cancer, TP53 null/mutant", "text": "(§1) The NCI-60 Cell Line Panel was assembled by the National Cancer Institute as an in vitro anticancer drug screen. The panel comprises human cancer cell lines representing nine different tissues of origin: breast, colon, central nervous system, renal, lung, melanoma, ovarian, prostate, and hematogenous. […] See, e.g., Leroy et al. “Analysis of TP53 Mutation Status in Human Cancer Cell Lines: a Reassesment” Hum Mutat 2014 35(6): 756-765."}, "[2]": {"test_system": "A549/ATCC", "settings": "Lung-NSCL, TP53 wild type", "text": "as §1"}, "[3]": {"test_system": "BT-549", "settings": "BT-549, Breast cancer, TP53 null/mutant", "text": "as §1"}, "[4]": {"test_system": "CCRF-CEM", "settings": "Leukemia, TP53 null/mutant", "text": "as §1"}, "[5]": {"test_system": "EKVX", "settings": "Lung-NSCL, TP53 null/mutant", "text": "as §1"}, "[6]": {"test_system": "HCC-2998", "settings": "HCC-2998, Colon cancer, TP53 null/mutant", "text": "as §1"}, "[7]": {"test_system": "HOP-92", "settings": "HOP-92, Lung-NSCL, TP53 null/mutant", "text": "as §1"}, "[8]": {"test_system": "HS 578T", "settings": "Breast cancer, TP53 null/mutant", "text": "as §1"}, "[9]": {"test_system": "K-562", "settings": "K-562, Leukemia, TP53 null/mutant", "text": "as §1"}, "[10]": {"test_system": "KM12", "settings": "KM12, Colon cancer, TP53 null/mutant", "text": "as §1"}, "[11]": {"test_system": "LOX IMVI", "settings": "Melanoma, TP53 wild type", "text": "as §1"}, "[12]": {"test_system": "M14", "settings": "M14, Melanoma, TP53 null/mutant", "text": "as §1"}, "[13]": {"test_system": "MALME-3M", "settings": "Melanoma, TP53 wild type", "text": "as §1"}, "[14]": {"test_system": "MCF7", "settings": "MCF7, Breast cancer, TP53 wild type", "text": "as §1"}, "[15]": {"test_system": "MDA-MB-231", "settings": "MDA-MB-231, Breast cancer, TP53 null/mutant", "text": "as §1"}, "[16]": {"test_system": "MDA-MB-435", "settings": "MDA-MB-435, Melanoma, TP53 null/mutant", "text": "as §1"}, "[17]": {"test_system": "MOLT-4", "settings": "MOLT-4, Leukemia, TP53 null/mutant", "text": "as §1"}, "[18]": {"test_system": "NCI-H322M", "settings": "Lung-NSCL, TP53 null/mutant", "text": "as §1"}, "[19]": {"test_system": "NCI-H522", "settings": "NCI-H522, Lung-NSCL, TP53 null/mutant", "text": "as §1"}, "[20]": {"test_system": "OVCAR-3", "settings": "OVCAR-3, Ovarian cancer, TP53 null/mutant", "text": "as §1"}, "[21]": {"test_system": "OVCAR-4", "settings": "OVCAR-4, Ovarian cancer, TP53 null/mutant", "text": "as §1"}, "[22]": {"test_system": "OVCAR-5", "settings": "OVCAR-5, Ovarian cancer, TP53 wild type", "text": "as §1"}, "[23]": {"test_system": "PC-3", "settings": "PC-3, Prostate cancer, TP53 null/mutant", "text": "as §1"}, "[24]": {"test_system": "RXF 393", "settings": "RXF 393, Renal cancer, TP53 null/mutant", "text": "as §1"}, "[25]": {"test_system": "SF-295", "settings": "SF-295, CNS cancer, TP53 null/mutant", "text": "as §1"}, "[26]": {"test_system": "SF-539", "settings": "SF-539, CNS cancer, TP53 null/mutant", "text": "as §1"}, "[27]": {"test_system": "SK-MEL-28", "settings": "SK-MEL-28, Melanoma, TP53 null/mutant", "text": "as §1"}, "[28]": {"test_system": "SK-MEL-2", "settings": "SK-MEL-2, Melanoma, TP53 null/mutant", "text": "as §1"}, "[29]": {"test_system": "SK-MEL-5", "settings": "SK-MEL-5, Melanoma, TP53 wild type", "text": "as §1"}, "[30]": {"test_system": "SK-OV-3", "settings": "SK-OV-3, Ovarian cancer, TP53 null/mutant", "text": "as §1"}, "[31]": {"test_system": "SN12C", "settings": "Renal cancer, TP53 null/mutant", "text": "as §1"}, "[32]": {"test_system": "SNB-19", "settings": "SNB-19, CNS cancer, TP53 null/mutant", "text": "as §1"}, "[33]": {"test_system": "SNB-75", "settings": "SNB-75, CNS cancer, TP53 null/mutant", "text": "as §1"}, "[34]": {"test_system": "SR", "settings": "Leukemia, TP53 wild type", "text": "as §1"}, "[35]": {"test_system": "TK-10", "settings": "TK-10, Renal cancer, TP53 null/mutant", "text": "as §1"}, "[36]": {"test_system": "UACC-257", "settings": "UACC-257, Melanoma, TP53 wild type", "text": "as §1"}, "[37]": {"test_system": "UO-31", "settings": "UO-31, Renal cancer, TP53 wild type", "text": "as §1"}}}
{"compound": "Nc1ncn([C@@H]2O[C@H](CO)[C@@H](O)C2(F)F)c(=O)n1", "note": "[NUC013, 4-amino-1-((2R,4R,5R)-3,3-difluoro-4-hydroxy-5-(hydroxymethyl)tetrahydrofuran-2-yl)-1,3,5-triazin-2(1H)-one]", "values": [{"measurement": "Growth (%) at 10 μM", "setting": "[1]", "value": 26.29, "unit": "%"}, {"measurement": "Growth (%) at 10 μM", "setting": "[2]", "value": 37.91, "unit": "%"}, {"measurement": "Growth (%) at 10 μM", "setting": "[3]", "value": 53.63, "unit": "%"}, {"measurement": "Growth (%) at 10 μM", "setting": "[4]", "value": 23.67, "unit": "%"}, {"measurement": "Growth (%) at 10 μM", "setting": "[5]", "value": 86.06, "unit": "%"}, {"measurement": "Growth (%) at 10 μM", "setting": "[6]", "value": 60.44, "unit": "%"}, {"measurement": "Growth (%) at 10 μM", "setting": "[7]", "value": 34.34, "unit": "%"}, {"measurement": "Growth (%) at 10 μM", "setting": "[8]", "value": 90.37, "unit": "%"}, {"measurement": "Growth (%) at 10 μM", "setting": "[9]", "value": 65.66, "unit": "%"}, {"measurement": "Growth (%) at 10 μM", "setting": "[10]", "value": 61.18, "unit": "%"}, {"measurement": "Growth (%) at 10 μM", "setting": "[11]", "value": 34.53, "unit": "%"}, {"measurement": "Growth (%) at 10 μM", "setting": "[12]", "value": 15.55, "unit": "%"}, {"measurement": "Growth (%) at 10 μM", "setting": "[13]", "value": 67.90, "unit": "%"}, {"measurement": "Growth (%) at 10 μM", "setting": "[14]", "value": 20.74, "unit": "%"}, {"measurement": "Growth (%) at 10 μM", "setting": "[15]", "value": 79.98, "unit": "%"}, {"measurement": "Growth (%) at 10 μM", "setting": "[16]", "value": 53.04, "unit": "%"}, {"measurement": "Growth (%) at 10 μM", "setting": "[17]", "value": 35.63, "unit": "%"}, {"measurement": "Growth (%) at 10 μM", "setting": "[18]", "value": 70.00, "unit": "%"}, {"measurement": "Growth (%) at 10 μM", "setting": "[19]", "value": 86.91, "unit": "%"}, {"measurement": "Growth (%) at 10 μM", "setting": "[20]", "value": 70.56, "unit": "%"}, {"measurement": "Growth (%) at 10 μM", "setting": "[21]", "value": 94.88, "unit": "%"}, {"measurement": "Growth (%) at 10 μM", "setting": "[22]", "value": 86.95, "unit": "%"}, {"measurement": "Growth (%) at 10 μM", "setting": "[23]", "value": 63.57, "unit": "%"}, {"measurement": "Growth (%) at 10 μM", "setting": "[24]", "value": 44.97, "unit": "%"}, {"measurement": "Growth (%) at 10 μM", "setting": "[25]", "value": 77.93, "unit": "%"}, {"measurement": "Growth (%) at 10 μM", "setting": "[26]", "value": 22.25, "unit": "%"}, {"measurement": "Growth (%) at 10 μM", "setting": "[27]", "value": 78.46, "unit": "%"}, {"measurement": "Growth (%) at 10 μM", "setting": "[28]", "value": 104.47, "unit": "%"}, {"measurement": "Growth (%) at 10 μM", "setting": "[29]", "value": 70.84, "unit": "%"}, {"measurement": "Growth (%) at 10 μM", "setting": "[30]", "value": 71.09, "unit": "%"}, {"measurement": "Growth (%) at 10 μM", "setting": "[31]", "value": 51.65, "unit": "%"}, {"measurement": "Growth (%) at 10 μM", "setting": "[32]", "value": 58.88, "unit": "%"}, {"measurement": "Growth (%) at 10 μM", "setting": "[33]", "value": 64.95, "unit": "%"}, {"measurement": "Growth (%) at 10 μM", "setting": "[34]", "value": 14.99, "unit": "%"}, {"measurement": "Growth (%) at 10 μM", "setting": "[35]", "value": 91.13, "unit": "%"}, {"measurement": "Growth (%) at 10 μM", "setting": "[36]", "value": 77.54, "unit": "%"}, {"measurement": "Growth (%) at 10 μM", "setting": "[37]", "value": 39.00, "unit": "%"}]}
